From US20250186321A1, “FORMULATION USING AMINO ACID AND CARBOXYLIC ACID, ORGANIC SALT, AND COMPOSITION COMPRISING SAME AND USE THEREOF” (MIYOSHI OIL & FAT CO., LTD., priority 2021, published 2025)

How the values were obtained:
[1] = Appearance of formulation (state at 25° C.); type: physicochemical; conditions: 25° C.
Description: Formulations 1 to 427 shown in Tables 1A to 1D were prepared by the above-described method using the components (A) and (B) at the compounding molar ratios shown in the tables, and their states at 25° C. were observed.

[2] = Water retention evaluation (moisture reduction rate); type: physicochemical; conditions: for Moisture eduction rate / Moisture content before test (A): 80 wt. % aqueous solution; for Moisture eduction rate: 24 hours at 35° C. and 25% RH, calculated from A and B; for Moisture content before test (A): Karl Fischer; for Presence or absence of hydrates: left until the moisture content remained unchanged, based on final moisture content
Description: 80 wt. % aqueous solutions of the formulations (organic salts) of the working examples 428 to 459 and comparative examples 1 to 5 in Tables 2A and 2B were prepared, and the water contents were measured using a Karl Fischer moisture meter (CA-200 manufactured by Mitsubishi Chemical Analytech Co., Ltd.). It was confirmed that the water contents of them were 20.0 wt. % (moisture content before test: A). Each of the 1.0 g samples was added to a screw tube, and left uncovered to stand still for 24 hours in a constant temperature and humidity bath (KCL-2000W manufactured by Tokyo Rikakikai Co., Ltd.) which was set at 35° C. and 25% RH. Moisture contents after being left for 24 hours were measured again (moisture content after test: B) to evaluate their water retention property by using the following formula for calculating the moisture reduction rates. After that, it was left to stand still until the moisture content remained unchanged, and determinations of the hydrate and the number of hydrated water were made based on the final moisture contents. • Moisture content before test: A (%) • Moisture content after test: B (%)

Escherichia coli [3] = experiment: Antibacterial property evaluation 1 (minimum inhibitory concentration, broth microdilution); type: cell-based; conditions: broth microdilution method
Source text: (§1) The following reagents, etc, were used for minimum inhibitory concentration (MIC) measurement and halo test. • Staphylococcus aureus: strain of NBRC15035, NITE • Escherichia coli: strain of […], NITE • Potassium lactate manufactured by Fujifilm Wako Pure Chemical • Medium of Muller-Hinton broth: Becton, Dickinson and Company • Media for revival of L-dried specimens “DAIGO” manufactured by Fujifilm Wako Pure Chemical • Calcium chloride manufactured by Fuji Film Wako Pure Chemical • Magnesium chloride manufactured by Fuji Film Wako Pure Chemical • Skim milk: Megmilk Snow Brand • Meat extract: from Solabia Biokar Diagnostics • Peptone: from Solabia Biokar Diagnostics • Sodium chloride manufactured by Fuji Film Wako Pure Chemical • Agar manufactured by Fuji Film Wako Pure Chemical
(§2) Working examples 556 to 583 and the comparative example 19 shown in Tables 8A and 8B were subjected to the minimum inhibitory concentration (MIC) test against Escherichia coli and Staphylococcus aureus by the broth microdilution method (as described in the standard method of the Japanese Society of Chemotherapy) to study antibacterial activities of the formulations (organic salt). Formulation (organic salt) concentrations at 250, 200, 150, 100, 50, 25, 12.5, 8, 4, 2, 0.8, 0.4, 0.2, 0.1, 0.05 mg/mL were evaluated, and the MICs are shown in Tables 8A and 8B.

Staphylococcus aureus [4] = experiment: as above; type: cell-based; conditions: broth microdilution method
Source text: as §1, §2

[5] = Appearance of formulation (state at 25° C.); type: physicochemical; conditions: Tables 2A/2B; formulation at the compounding molar ratio listed
[6] = Evaluation on permeability to skin (tape stripping, ascorbyl glucoside); type: in vivo; conditions: scale 1(Slow) to 5(Fast), 10 wt. % aqueous solution with 5 wt. % ascorbyl glucoside, layers 1 to 8, 5 test subjects
Description: As for the comparative example 33, ascorbyl glucoside was added so as to be 5% by mass with respect to water to prepare a sample solution. Then, a cotton material impregnated with the prepared 750 μL sample solution was applied to a 1 cm×3 cm area of the inner side of an upper arm for each of the 5 test subjects who have been kept in quiet for 30 minutes under constant temperature and humidity, and allowed to stand still for 5 minutes. After removing the cotton material, a new cotton material was used to remove the sample having been left on the skin surface and then allowed to stand still for 30 minutes. The horns in the first to eighth layers were then harvest from the application site using a Cellotape® (manufactured by Nichiban Co., Ltd.), and all of the layers obtained from the tape were used as samples for assay.
The obtained sample for assay was then extracted with 2 ml of ion-exchange water over the course of 10 min. […] The measured values of the samples for assay that were harvested from the 5 test subjects were averaged, and the averaged value was regarded as the permeation amount (μg/cm^2) to make a comparison of the total permeation amounts for the first to eighth layers. […]

Escherichia coli [7] = experiment: Antibacterial evaluation of antibacterial composition (with paraben); type: cell-based; conditions: 1.0 mg/mL paraben and/or 1.0 mg/mL formulation
Description: as §2
(§3) Antibacterial compositions prepared to have the composition having the components (A) and (B) and paraben in an equal amount (working examples 597 to 612, wherein 1.0 mg/mL of paraben and 1.0 mg/mL of the respective working examples 597 to 612 are combined to be 2.0 mg/mL of the composition); the comparative example 27 containing only of water and paraben (at the concentration of 1.0 mg/mL of paraben); and reference example 1 containing L-lysine and citric acid (at the concentration of 1.0 mg/mL) were each subjected to a test performed by a method similar to and as explained in the section of 9-1 based on the presence or absence of the bacterial growth to evaluate the presence or absence of the antibacterial activity.

Staphylococcus aureus [8] = experiment: as above; type: cell-based; conditions: 1.0 mg/mL paraben and/or 1.0 mg/mL formulation
Description: as §2, §3

Compound: CC(O)C(=O)[O-].[K+] (centres unmarked) [Formulation 428]
- state at 25° C. [1]: Solid
- Moisture eduction rate [2]: 87.5%
- Moisture content before test (A) [2]: 20.0%
- Presence or absence of hydrates [2]: Absent
- MIC Escherichia coli (Escherichia coli [3]): 100 mg/mL
- MIC Staphylococcus aureus (Staphylococcus aureus [4]): 150 mg/mL
- state at 25° C. [5]: Solid

Compound: OCC(O)CO [Formulation 432]
- Moisture eduction rate [2]: 89.7%
- Moisture content before test (A) [2]: 20.0%
- Presence or absence of hydrates [2]: Absent
- Relative infiltration rates of active component (ascorbyl glucoside) into skin [6]: 5
- state at 25° C. [5]: Liquid

Compound: COC(=O)c1ccc(O)cc1 [compound 27, methylparaben]
- presence or absence of the antibacterial activity (Escherichia coli [7]): does not exhibit any antibacterial activity
- presence or absence of the antibacterial activity (Staphylococcus aureus [8]): does not exhibit any antibacterial activity
